Test system: P. falciparum 3D7 growth, pLDH absorbance
Assay: blood-stage malaria parasite growth potency – strain 3D7, dose response (AID 2305)

| Structure (SMILES) | IC50 [nM] |
| --- | --- |
| NC1=NC(c2ccccc2)N(c2ccc(Cl)c(Cl)c2)C(N)=N1 (stereo not drawn) | 10 |
| CCCCC(=O)Nc1nc2ccc([N+](=O)[O-])cc2s1 | 760 |
| CCS(=O)(=O)c1ccc(OC)c(Nc2nccc(-c3c(-c4cccc(NC(=O)c5c(F)cccc5F)c4)nn4ncccc34)n2)c1 | 1030 |
| CCCCCCCSc1ccc(CC(C)NCC(O)c2cccc(Cl)c2)cc1 (stereo not drawn) | 180 |
| Cc1cc(N(C)C)nc(Nc2ccc(NC(=O)COc3ccccc3)cc2)n1 | 1760 |
| CCOc1ccccc1CCNCC1CCN(CC2CCCCC2)CC1 | 780 |
| Cc1cc(CNCC(CCNc2cc(=O)c3ccccc3[nH]2)NCc2cc(Br)cc(Br)c2)oc1C (stereo not drawn) | 890 |
| Cc1ccc(CC(C)NCC(O)c2cccc(Br)c2)cc1 (stereo not drawn) | 800 |
| Cc1ccc(S(=O)(=O)/N=C(\N)NC(N)=O)cc1 | 790 |
| O=C(Nc1cccc(-c2csc(-c3nc4ccccc4[nH]3)c2)c1)c1cc(=O)c2ccccc2[nH]1 | 230 |
| COc1cc(C=C(C2=NC(=O)CS2)c2nc3cccnc3n2C)ccc1O | 1000 |
| O=C(NCc1cccs1)[C@H](Cc1ccccc1)Nc1ccnc(NCCc2ccccc2)n1 | 1050 |
| COc1ccc(-c2cccc(NC(=O)c3cccc(Cl)c3)c2)cc1CN1CCN(C)CC1 | 760 |
| O=[N+]([O-])c1ccc(NC(=NCCOc2ccccc2)Nc2ccccc2Br)c(O)c1 | 1050 |
| COc1ccc(C(C)Nc2nc(N)c3cc(OC)c(OC)cc3n2)cc1 (stereo not drawn) | 940 |
| CN(C)[C@@H]1C(=O)C(C(N)=O)=C(O)[C@@]2(O)C(=O)C3=C(O)c4c(O)ccc(C#Cc5ccccn5)c4C[C@H]3C[C@@H]12 | 760 |
| Cc1ccc2c(c1)NC[C@@]21CCN(C[C@@H](O)C2CCN(c3cc(C#N)ccn3)CC2)C[C@@H]1C | 610 |
| CCc1cc2c(O)c([N+](=O)[O-])c(=O)oc2cc1OCCCCCOc1cc2oc(=O)c([N+](=O)[O-])c(O)c2cc1CC | 260 |
| O=C(NC1CCN(Cc2cccc(C(F)(F)F)c2)CC1)c1ccc(-c2cccc(Cl)c2)s1 | 1130 |

| Structure (SMILES) | IC50 [nM] |
| --- | --- |
| C[C@@H](CC1CCCCC1)OC(=O)N[C@H]1CCN(C#N)C1 | 870 |
| CN1CCN(Cc2ccc(OCc3cccc(COc4ccc(CN5CCN(C)CC5)cc4I)c3)c(I)c2)CC1 | 1010 |
| COc1ccc2ncn(-c3ccc(C(N)=O)c(OCc4ccccc4C(F)(F)F)c3)c2c1 | 540 |
| COc1ccc(Oc2ccc(-c3c(C)[nH]c(C)c(Cl)c3=O)cc2)cc1 | 140 |
| N#Cc1ccc(-c2ccc(C(=O)Nc3ccc4c(c3)CCN(C3CCC3)CC4)nc2)cc1 | 700 |
| CC(C)CNCc1ccc(-c2ccc(CN(C(=O)NC3CCCCC3)C3CCN(Cc4ccccc4)CC3)cc2)cc1 | 780 |
| Oc1cc(Nc2ccnc3cc(-c4ccc(CN5CCCCC5)o4)c(Cl)cc23)c(Cl)cc1F | 1260 |
| Cc1[nH]c(C)c(-c2ccc(Oc3ccc(Cl)c(Cl)c3)cc2)c(=O)c1Br | 300 |
| O=C(Nc1cccc(CN2CCCN(Cc3ccccc3)CC2)c1)c1ccc(Cl)c(Cl)c1 | 900 |
| O=C(N[C@@H](CC1CCCCC1)C(=O)NC1CCCCCC1)c1ccc(O)c(-c2ccc(Cl)c(Cl)c2)c1 | 100 |
| CCCc1c(C(=O)NC2CCC(CN3CCC(c4c[nH]c5ccccc45)CC3)CC2)cnn1-c1ccccc1 (stereo not drawn) | 1790 |
| O=C(N[C@H]1CCN(Cc2ccc(OCCN3CCNCC3)c(Br)c2)C1)c1ccc(Cl)c(Cl)c1 | 480 |
| CCC1CN2CCc3cc(OC)c(OC)cc3C2CC1CC1NCCc2cc(OC)c(OC)cc21 (stereo not drawn) | 140 |
| CC(C)CCNC(=O)c1cc(C(=O)c2cc(F)ccc2O)cn(CCC(C)C)c1=O | 750 |
| Brc1cc2c(cc1C=NNc1nc(Nc3ccccc3)nc(Nc3ccccc3)n1)OCO2 | 800 |
| Cc1cccc2[nH]c(-c3cccc(-c4ccc(C(=O)NCCc5ccc(O)c(=O)[nH]5)cc4)c3)nc12 | 1190 |
| CCCCCOc1ccc(C(O)C(CCC(CN2CCCCCC2)C(O)c2ccc(OCCCCC)cc2)CN2CCCCCC2)cc1 (stereo not drawn) | 770 |
| COc1cc(Nc2nccc(N3CCC(NC(=O)C(C)c4ccc(Cl)cc4)C3)n2)cc(OC)c1OC (stereo not drawn) | 760 |
| COc1ccc(-c2nc(NC(=O)Cc3cccc(OC)c3)sc2C)cc1 | 240 |

Reference: PubChem BioAssay AID2305 (GlaxoSmithKline (GSK), 2010)
